From US12331302B2, “Fungal autoinducible expression system” (priority 2019, dated 2025) come the findings set out here.

Assay type in all cases: cell-based, Saccharomyces cerevisiae
One experiment deals with strains JL277-JL280. Description: Autoinducible strains with endogenous α-factor production, fluorescence by TECAN plate reader. Conditions: JL277-280 with pFUS1J2-ubiM-Cre pTDH3-rtTA pTETO3-BAR1 and pTEF1-loxP-GFP-loxP-mCherry; with or without 5 μM α-factor. On the procedure:
To establish autoinducible strains, the α-factor-expressing gene MFα1 under control of four different native promoters with different expression strengths (pTDH3, pPGK1, pYEF3 and pACT1) is integrated into locus p416d into the genome of JL275, resulting in strains JL277-JL280, respectively. The strains are transformed with plasmids pFUS1J2-ubiM-Cre pTDH3-rtTA pTETO3-BAR1 and pTEF1-loxP-GFP-loxP-mCherry, inoculated into CSM-ura-leu supplemented with 5 μg/mL doxycycline and pre-cultured for two days. The pre-cultures are washed and inoculated to an OD of 0.05, and grown with or without 5 μM α-factor to compare endogenous and external inducibility. The strain fluorescence is measured with a TECAN plate reader. […] The strain also continued to produce GFP unless α-factor is added. This experiment is to be repeated according to the previously established strain characterization protocol and measured with a flow cytometer.

The next experiment deals with FUS1 promoter (pFUS1). Description: mCherry expression under control of pFUS1, with or without α-factor. As to conditions: after 24 h, culture with addition of 5 μM α-factor. Here is the method: (§1) Pre-cultures are prepared by inoculation of biological triplicates in CSM with appropriate amino acid drop out, and are grown for two days at 30° C., 250 rpm. Thereafter, they are inoculated to an OD of 0.05 in two duplicate tubes, whereof one is induced with 5 μM α-factor. Strains are grown at 30° C., 250 rpm for 24 h and samples are taken for flow cytometry after 0, 8 and 24 h. For characterization of strains with endogenous α-factor production, transformation plates and pre-culture media is supplemented with 5 μg/mL doxycycline. The pre-cultures are washed to remove Bar1 and doxycycline prior to inoculation. OD is measured at 600 nm and GFP and mCherry production is measured with a BD Accuri™ C6 flow cytometer from Becton, Dickinson and Company (Franklin Lakes, NJ, USA).
(§2) To test the initial system configuration, pFUS1-Cre and pTEF1-loxP-GFP-loxP-mCherry is transformed into strain JL275 (BY4741 MATa Δbar1 Δfar1). Precultures are grown for two days in CSM-ura-leu. Each replicate is used to inoculate two cultures, whereof one is induced with 5 μM α-factor. Fluorescence is measured after 0, 8 and 24 h. […] This indicated a high basal level expression from the FUS1 promoter, leading to leaky expression of Cre recombinase and early recombination. To investigate this hypothesis, mCherry is cloned under control of pFUS1 and mCherry expression is measured at 0 and 24 h. […]

The test system of experiment [1] is Ste2 receptor / pFUS1J2-ubiM-Cre circuit in strain JL275. Briefly: Strain characterization: GFP and mCherry production by flow cytometry after α-factor induction of the Cre/loxP circuit. As to conditions: JL275 with pFUS1J2-ubiM-Cre and pTEF1-loxP-GFP-loxP-mCherry. On the procedure: as §1, §2
(In flow cytometry, cells or beads pass a laser one at a time.)

The subject of experiment [2] is pTETO3-BAR1 control module in strain JL275. Briefly: Functionality of doxycycline-inducible BAR1 expression (supernatant/α-factor mix). Conditions: supernatant mixed with 600 μM α-factor, 30° C., 4 h. Here is the method: The functionality of Bar1 expression is investigated by transforming JL275 with pFUS1J2-ubiM-Cre pTDH3-rtTA pTETO3-BAR1 or control plasmid pFUS1-Cre. Both strains are inoculated in media with or without 5 μg/mL doxycycline, and are grown to stationary phase where after they are spun down. 0.5 mL supernatant is mixed with 0.5 mL 600 μM α-factor and incubated at 30° C. for 4 h. A corresponding amount of 5 μM α-factor (assuming no α-factor has been degraded) from each supernatant/α-factor incubation mix is used to induce cultures of JL275 with pFUS1J2-ubiM-Cre and pTEF1-loxP-GFP-loxP-mCherry (FIG. 4A). 0 and 5 μM α-factor are used as controls.

Regarding α-factor, in the experiment on strains JL277-JL280, the mCherry production induction entry was “barely induced unless α-factor is added”. The “mCherry expression from pFUS1 compared to the background strain autofluorescence” value in the experiment with FUS1 promoter (pFUS1) is “approximately 20 fold”. Besides, the “System titratability (mCherry output)” value in experiment [1] (0, 0.1, 0.5, 1, 5 or 10 μM α-factor) is “mCherry output correlating to the amount of α-factor added”. Further, the “GFP to mCherry production shift” value in experiment [1] (5 μM α-factor, 0, 8 and 24 h) is recorded as “clear shift from GFP to mCherry production”.

B1: Bar1: α-factor degrading protease (protein, UniProt P12630 25-587, looked up)
Barrierpepsin: LTNDGTGHLEFLLQHEEEMYYATTLDIGTPSQSLTVLFDTGSADFWVMDSSNPFCLPNSNTSSYSNATYNGEEVKPSIDCRSMSTYNEHRSSTYQYLENGRFYITYADGTFADGSWGTETVSINGIDIPNIQFGVAKYATTPVSGVLGIGFPRRESVKGYEGAPNEYYPNFPQILKSEKIIDVVAYSLFLNSPDSGTGSIVFGAIDESKFSGDLFTFPMVNEYPTIVDAPATLAMTIQGLGAQNKSSCEHETFTTTKYPVLLDSGTSLLNAPKVIADKMASFVNASYSEEEGIYILDCPVSVGDVEYNFDFGDLQISVPLSSLILSPETEGSYCGFAVQPTNDSMVLGDVFLSSAYVVFDLDNYKISLAQANWNASEVSKKLVNIQTDGSISGAKIATAEPWSTNEPFTVTSDIYSSTGCKSRPFLQSSTASSLIAETNVQSRNCSTKMPGTRSTTVLSKPTQNSAMHQSTGAVTQTSNETKLELSSTMANSGSVSLPTSNSIDKEFEHSKSQTTSDPSVAEHSTFNQTFVHETKYRPTHKTVITETVTKYSTVLINVCKPTY
As to B1, the “Degradation of α-factor by supernatant” value in experiment [2] was “functional and degrades α-factor”.
